Experimental data from patent US20030060487A1, “Treatment of neurodegenerative disease” (priority 2000, published 2003).

Experiments:
[1] = target: T1, β-amyloid peptide (his-Aβ 1-40) with Aβ 1-42 fibrils (Homo sapiens, UniProt P05067); assay: Colloid drug screen for aggregate inhibition at high peptide concentration, with pre-formed Aβ 1-42 fibrils; assay type: biochemical; conditions: 20 uM his-Aβ 1-40 + 1 uM Aβ 1-42 fibrils; 5 ul drug (2.9 mg/ml in DMSO) in 100 ul; 37° C. 4-6 hours; microscope 40×
T1 construct: 10 ul of a 200 uM solution of his-Aβ 1-40 peptide in phosphate buffer; 3.3 ul of 30 uM Aβ 1-42 fibrils (non-histidine-tagged) was added to each well
T1 sequence (P05067 672-713): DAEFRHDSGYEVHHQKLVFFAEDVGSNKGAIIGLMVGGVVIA
T1 sequence (P05067 672-711): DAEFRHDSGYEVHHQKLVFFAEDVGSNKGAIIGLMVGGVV
Source text: (§1) Compositions were identified that inhibit aggregation characteristic of neurodegenerative disease at high B-amyloid peptide concentration, low peptide concentration, and in some cases both. Compositions that inhibited aggregation at high concentration inhibited formation where an assay included B-amyloid peptide and at least some amount of pre-formed aggregate characteristic of neurodegenerative disease. Compositions that inhibited aggregation at low concentration inhibited […] in the presence of β-amyloid peptide but in the absence of any pre-formed aggregate characteristic of neurodegenerative disease.
In another drug screening method, drugs were incubated with Aβ 1-42 fibrils, which will convert normal Aβ 1-40 peptides to the fibrillar form at a faster rate than Aβ 1-40 fibrils. Histidine-tagged Aβ 1-40 peptides were then added to the wells, along with colloids derivatized with self-assembled monolayers containing NTA-Ni for the attachment of histidine-tagged Aβ 1-40. It was previously shown that Aβ 1-42 fibrils will cause accelerated conversion of Aβ 1-40, which will then incorporate into large aggregates structures. These aggregates are colored red by the colloids attached to the peptides, and are easily visible under the microscope.
5 ul of each drug in DMSO was added to the wells of a 96-well ELISA plate, which contained 52 ul of phosphate buffer. […]

[2] = target: T2, β-amyloid peptide (his-Aβ 1-40) (Homo sapiens, UniProt P05067); assay: Colloid colorimetric drug screen for fibril inhibition at low peptide concentration, no pre-formed aggregate; assay type: biochemical; conditions: 5 uM his-Aβ 1-40, no pre-formed aggregate; 5 ul drug (2.9 mg/ml in DMSO); 37C 1.5-2 hours; well stays pink vs blue
T2 construct: 10 ul of a 50 uM solution of his-Aβ 1-40 peptide in phosphate buffer
T2 sequence (P05067 672-711): as above
Source text: as §1
In one drug screening method, histidine-tagged AB 1-40 peptides were immobilized on colloids derivatized with self-assembled monolayers containing NTA-Ni for the attachment of histidine-tagged peptides. It has been previously shown that the Aβ peptides, if not inhibited by a drug, will spontaneously convert to the fibrillar form and aggregate, pulling the colloids close together, and causing a color change from pink to blue.
Drugs from the Sigma-RBI Library of Pharmacologically Active Compounds (LOPAC; #SC001, 1999) were dissolved in dimethyl sulphoxide (DMSO) to a final concentration of 2.9 mg/ml. […]

[3] = system: Amyloid Precursor Protein (APP) in HEK cells; assay: Colorimetric whole cell screening assay for drugs that effect APP production, secretion, or cleavage; assay type: cell-based, Human; conditions: HEK cells expressing APP; 1.25 ul of 2.9 mg/mL drug in DMSO per well, approx. 18 hours; then 5 uM His-AB colloids 8-12 hours
Procedure: Human Embryonic Kidney (HEK) cells expressing the Amyloid Precursor Protein (APP) were split into the wells of a 96-well cell-culture plate and were allowed to adhere and spread. […] Positive control cells were given DMSO in place of a drug. […] Cells were allowed to grow overnight for approximately 18 hours at 37C. After 18 hours, 1.925 mL of a 30 uM solution of His-tagged AB(1-40) in phosphate buffer was mixed with 2.880 mL 40 uM NTA colloids for a resulting concentration of 12 uM His-AB. 50 ul of the AB colloid solution was added to each well of the cell-culture plate, which contained 70 ul cell culture media per well. […] The plates were incubated at 37C for 8-12 hours, or until a color change from pink to blue occurred in the positive controls.
Once the positive controls changed color from pink to blue, the wells containing drug candidates were visually examined for a color change. […] Cell death due to drug toxicity would obviously effect APP production, and may cause a well to remain pink. For this reason, all wells containing drug candidates were examined under the microscope for cell viability.

inhibition of aggregate formation at high peptide concentration [1]: do not provide a positive result
inhibition of aggregate formation at low peptide concentration [2]: do not provide a positive result
SMILES: COc1cc(Cc2cnc(N)nc2N)cc(OC)c1OC [trimethoprim]
effect on APP production, secretion, or cleavage (lack of color change pink to blue) [3]: do not provide a positive result
